Reference: ChEMBL document CHEMBL1909046, “DrugMatrix in vitro pharmacology data”

Tests used:
Cytochrome P450 2A6 = target: T1, Cytochrome P450 2A6 (Homo sapiens, UniProt P11509); settings: bti-tn-5b1-4; note: in other assays of this panel Not Active means under 50% inhibition at 10 µM
T1 sequence (P11509 whole entry): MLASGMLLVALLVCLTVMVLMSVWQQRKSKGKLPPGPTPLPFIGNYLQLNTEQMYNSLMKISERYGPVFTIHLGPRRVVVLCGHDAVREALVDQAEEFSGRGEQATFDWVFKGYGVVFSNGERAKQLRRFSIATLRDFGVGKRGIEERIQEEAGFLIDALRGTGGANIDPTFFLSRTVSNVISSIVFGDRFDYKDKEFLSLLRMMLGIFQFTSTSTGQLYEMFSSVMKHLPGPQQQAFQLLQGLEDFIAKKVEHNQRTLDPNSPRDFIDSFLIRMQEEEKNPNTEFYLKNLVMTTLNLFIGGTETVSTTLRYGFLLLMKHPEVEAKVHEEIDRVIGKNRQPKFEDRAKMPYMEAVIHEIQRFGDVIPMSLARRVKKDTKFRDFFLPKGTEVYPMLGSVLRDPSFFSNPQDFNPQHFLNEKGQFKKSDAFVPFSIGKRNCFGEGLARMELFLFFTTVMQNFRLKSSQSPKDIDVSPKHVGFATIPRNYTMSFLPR

[1] = target: T2, Type-2 angiotensin II receptor (Homo sapiens, UniProt P50052); assay type: cell-based; settings: cho-k1; note: in other assays of this panel Not Active means under 50% inhibition at 10 µM
T2 sequence (P50052 whole entry): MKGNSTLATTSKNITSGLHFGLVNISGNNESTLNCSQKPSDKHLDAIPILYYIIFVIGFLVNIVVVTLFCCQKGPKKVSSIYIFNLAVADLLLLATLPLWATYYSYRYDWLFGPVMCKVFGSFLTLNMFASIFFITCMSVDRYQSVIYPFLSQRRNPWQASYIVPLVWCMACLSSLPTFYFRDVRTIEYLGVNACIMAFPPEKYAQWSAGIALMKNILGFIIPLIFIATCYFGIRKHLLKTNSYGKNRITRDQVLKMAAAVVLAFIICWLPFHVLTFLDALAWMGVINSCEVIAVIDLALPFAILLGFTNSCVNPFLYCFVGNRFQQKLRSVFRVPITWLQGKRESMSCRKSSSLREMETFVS

[2] = DRUGMATRIX: Sodium/nucleoside co-transporter radioligand binding (ligand: nitrobenzylthioinosine); assay type: cell membranes, Cavia porcellus, Dunkin-Hartley, Cerebral cortex, Membrane; settings: Not Active = under 50% inhibition at 10 µM
[3] = DRUGMATRIX: GABAA, Flunitrazepam, Central radioligand binding (ligand: [3H] Flunitrazepam); assay type: cell membranes, Rattus norvegicus, Wistar, Brain, Membrane; settings: Not Active = under 50% inhibition at 10 µM
[4] = target: Sigma non-opioid intracellular receptor 1 (Homo sapiens, UniProt Q99720); experiment: DRUGMATRIX: Sigma1 radioligand binding (ligand: [3H] Haloperidol); assay type: cell membranes, Jurkat, Membrane; settings: jurkat; Not Active = under 50% inhibition at 10 µM
B2 bradykinin receptor = target: T3, B2 bradykinin receptor (Homo sapiens, UniProt P30411); assay type: cell membranes, Membrane; settings: chem-1; note: in other assays of this panel Not Active means under 50% inhibition at 10 µM
T3 sequence (P30411 whole entry): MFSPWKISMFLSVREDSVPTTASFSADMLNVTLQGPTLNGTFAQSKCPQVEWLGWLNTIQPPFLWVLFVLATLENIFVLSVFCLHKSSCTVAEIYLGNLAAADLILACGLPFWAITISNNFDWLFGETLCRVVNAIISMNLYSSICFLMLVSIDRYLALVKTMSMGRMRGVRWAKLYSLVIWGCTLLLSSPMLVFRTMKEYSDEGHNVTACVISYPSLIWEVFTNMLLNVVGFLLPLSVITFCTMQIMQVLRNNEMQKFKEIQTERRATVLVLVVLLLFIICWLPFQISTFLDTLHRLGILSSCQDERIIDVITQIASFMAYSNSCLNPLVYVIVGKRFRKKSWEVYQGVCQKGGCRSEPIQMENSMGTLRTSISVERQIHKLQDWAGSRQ

Glycine receptor = Glycine receptor (Rattus norvegicus, UniProt P22771+P24524+P07727+P20781); assay type: cell membranes, Wistar, Spinal cord, Membrane; note: in other assays of this panel Not Active means under 50% inhibition at 10 µM
[5] = target: T4, Alpha-1D adrenergic receptor (Homo sapiens, UniProt P25100); assay type: cell membranes, HEK293, Membrane; settings: hek293; note: in other assays of this panel Not Active means under 50% inhibition at 10 µM
T4 sequence (P25100 whole entry): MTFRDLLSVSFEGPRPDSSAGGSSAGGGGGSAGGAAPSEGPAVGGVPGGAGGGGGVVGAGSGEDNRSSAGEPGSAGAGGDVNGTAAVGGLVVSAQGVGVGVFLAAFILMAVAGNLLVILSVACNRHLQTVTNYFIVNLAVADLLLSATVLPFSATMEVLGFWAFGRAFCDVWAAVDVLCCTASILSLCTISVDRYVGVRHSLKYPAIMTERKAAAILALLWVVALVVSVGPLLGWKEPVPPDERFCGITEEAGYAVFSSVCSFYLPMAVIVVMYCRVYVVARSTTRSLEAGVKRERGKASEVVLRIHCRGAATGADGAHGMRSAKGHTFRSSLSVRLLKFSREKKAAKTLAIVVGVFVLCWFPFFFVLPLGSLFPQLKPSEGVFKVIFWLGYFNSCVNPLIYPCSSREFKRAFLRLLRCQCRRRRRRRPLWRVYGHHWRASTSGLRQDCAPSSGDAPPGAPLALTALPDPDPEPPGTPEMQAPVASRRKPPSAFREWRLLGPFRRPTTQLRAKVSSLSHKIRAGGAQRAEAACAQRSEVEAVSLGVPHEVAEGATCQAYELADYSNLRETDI

D(4) dopamine receptor = target: T5, D(4) dopamine receptor (Homo sapiens, UniProt P21917); experiment: DRUGMATRIX: Dopamine D4.2 radioligand binding (ligand: [3H] Spiperone); assay type: cell membranes, CHO-K1, Membrane; settings: cho-k1; Not Active = under 50% inhibition at 10 µM
T5 sequence (P21917 whole entry): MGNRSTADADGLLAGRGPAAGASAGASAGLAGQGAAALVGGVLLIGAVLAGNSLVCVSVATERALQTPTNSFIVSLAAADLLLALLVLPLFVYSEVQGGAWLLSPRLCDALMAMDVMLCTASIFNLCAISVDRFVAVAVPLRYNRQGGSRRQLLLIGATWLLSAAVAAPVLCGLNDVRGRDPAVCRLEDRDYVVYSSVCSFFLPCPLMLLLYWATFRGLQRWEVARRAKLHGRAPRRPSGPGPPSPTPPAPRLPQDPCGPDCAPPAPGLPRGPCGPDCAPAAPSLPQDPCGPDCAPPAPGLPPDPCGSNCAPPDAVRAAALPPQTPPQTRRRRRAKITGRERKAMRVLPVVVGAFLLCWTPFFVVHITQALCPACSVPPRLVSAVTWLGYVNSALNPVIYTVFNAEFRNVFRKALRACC

Chain of Sigma non-opioid intracellular receptor 1 (Q99720 whole entry): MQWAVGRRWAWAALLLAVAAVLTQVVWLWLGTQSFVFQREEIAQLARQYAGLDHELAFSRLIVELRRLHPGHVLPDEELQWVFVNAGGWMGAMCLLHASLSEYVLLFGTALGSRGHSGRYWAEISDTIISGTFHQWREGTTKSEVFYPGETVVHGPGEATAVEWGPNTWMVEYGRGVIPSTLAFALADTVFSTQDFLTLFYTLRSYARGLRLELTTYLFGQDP

COC(=O)c1ccc(O)cc1 [METHYLPARABEN]
Not Active: IC50 (Cytochrome P450 2A6) | Ki (Cytochrome P450 2A6) | IC50 [1] | IC50 [2] | Ki [2] | IC50 [3] | Ki [3] | IC50 [4] | IC50 (B2 bradykinin receptor) | IC50 (Glycine receptor) | IC50 [5] | IC50 (D(4) dopamine receptor)

C[C@](N)(Cc1ccc(O)cc1)C(=O)O [METYROSINE]
Not Active: IC50 (Cytochrome P450 2A6) | Ki (Cytochrome P450 2A6) | IC50 [1] | IC50 [2] | Ki [2] | IC50 [3] | Ki [3] | IC50 [4] | IC50 (B2 bradykinin receptor) | IC50 (Glycine receptor) | IC50 [5] | IC50 (D(4) dopamine receptor)

Clc1ccc(C(c2ccccc2Cl)C(Cl)Cl)cc1 (stereo not given) [MITOTANE]
Not Active: IC50 (Cytochrome P450 2A6) | Ki (Cytochrome P450 2A6) | IC50 [1] | IC50 [2] | Ki [2] | IC50 [3] | Ki [3] | IC50 [4] | IC50 (B2 bradykinin receptor) | IC50 (Glycine receptor) | IC50 [5] | IC50 (D(4) dopamine receptor)

COc1c(C)c2c(c(O)c1C/C=C(\C)CCC(=O)OCCN1CCOCC1)C(=O)OC2 [MYCOPHENOLATE MOFETIL]
Not Active: IC50 (Cytochrome P450 2A6) | Ki (Cytochrome P450 2A6) | IC50 [1] | IC50 [2] | Ki [2] | IC50 [3] | Ki [3] | IC50 [4] | IC50 (B2 bradykinin receptor) | IC50 (Glycine receptor) | IC50 [5] | IC50 (D(4) dopamine receptor)

NNc1ccccc1 [PHENYLHYDRAZINE]
Not Active: IC50 (Cytochrome P450 2A6) | Ki (Cytochrome P450 2A6) | IC50 [1] | IC50 [2] | Ki [2] | IC50 [3] | Ki [3] | IC50 [4] | IC50 (B2 bradykinin receptor) | IC50 (Glycine receptor) | IC50 [5] | IC50 (D(4) dopamine receptor)

NC(=O)c1ncn([C@@H]2O[C@H](CO)[C@@H](O)[C@H]2O)n1 [RIBAVIRIN]
Not Active: IC50 (Cytochrome P450 2A6) | Ki (Cytochrome P450 2A6) | IC50 [1] | IC50 [2] | Ki [2] | IC50 [3] | Ki [3] | IC50 [4] | IC50 (B2 bradykinin receptor) | IC50 (Glycine receptor) | IC50 [5] | IC50 (D(4) dopamine receptor)

O=[N+]([O-])c1cc([As](=O)(O)O)ccc1O [ROXARSONE]
Not Active: IC50 (Cytochrome P450 2A6) | Ki (Cytochrome P450 2A6) | IC50 [1] | Ki [1] | IC50 [2] | Ki [2] | IC50 [3] | Ki [3] | IC50 [4] | Ki [4] | IC50 (B2 bradykinin receptor) | Ki (B2 bradykinin receptor) | IC50 (Glycine receptor) | Ki (Glycine receptor) | IC50 [5] | Ki [5] | IC50 (D(4) dopamine receptor) | Ki (D(4) dopamine receptor)
